Data taken from US10011602B2, “Immunological reagents and uses therefor” (THE UNIVERSITY OF MELBOURNE, priority 2012, dated 2018).
Residue numbers refer to the chain shown, from its start.

B1: mouse MR1 refolded with 6-FP: tetramers from mouse MR1 (BirA peptide-tagged) refolded with 6-FP (protein, UniProt Q8HWB0 19-341, looked up)
Major histocompatibility …: RTHSLRYFRLAVSDPGPVVPEFISVGYVDSHPITTYDSVTRQKEPKAPWMAENLAPDHWERYTQLLRGWQQTFKAELRHLQRHYNHSGLHTYQRMIGCELLEDGSTTGFLQYAYDGQDFIIFNKDTLSWLAMDYVAHITKQAWEANLHELQYQKNWLEEECIAWLKRFLEYGRDTLERTEHPVVRTTRKETFPGITTFFCRAHGFYPPEISMTWMKNGEEIAQEVDYGGVLPSGDGTYQTWLSVNLDPQSNDVYSCHVEHCGRQMVLEAPRESGDILRVSTISGTTILIIALAGVGVLIWRRSQELKEVMYQPTQVNEGSSPS
modifications: BirA tag, tetramer, 6-FP ligand
B2: rRL-6-CH2OH-loaded mouse Lys43Ala-MR1: tetramers of mouse Lys43Ala-MR1 loaded with rRL-6-CH2OH (protein, UniProt Q8HWB0 19-341, looked up, variant K43A)
Major histocompatibility …: B1 Major histocompatibility … with K43A
modifications: tetramer loaded with rRL-6-CH2OH
notes: tetramers of mouse Lys43Ala-MR1 loaded with rRL-6-CH2OH

How the values were obtained:
MR1 = target: T1, MR1 (Homo sapiens, UniProt Q95460); test: Refolding of denatured MR1 and β2m with ligands; format: binding; conditions: substance added to MR1/β2m refold
T1 construct: soluble human MR1 (residues 1-270 of the mature, leaderless protein); made in house
T1 sequence (Q95460 23-292): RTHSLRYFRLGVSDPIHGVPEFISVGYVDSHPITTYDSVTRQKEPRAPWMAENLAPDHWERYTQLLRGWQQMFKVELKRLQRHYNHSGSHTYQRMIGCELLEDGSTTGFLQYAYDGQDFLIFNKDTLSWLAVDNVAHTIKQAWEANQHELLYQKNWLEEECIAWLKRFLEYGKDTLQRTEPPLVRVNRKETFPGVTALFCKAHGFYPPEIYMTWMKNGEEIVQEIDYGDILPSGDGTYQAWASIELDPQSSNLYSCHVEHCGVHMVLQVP
T1 sequence (P61769 21-119 partner): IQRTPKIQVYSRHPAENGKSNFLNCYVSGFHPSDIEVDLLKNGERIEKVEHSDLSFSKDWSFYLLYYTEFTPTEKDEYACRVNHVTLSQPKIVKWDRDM
Procedure: Genes encoding soluble human MR1 (residues 1-270 of the mature, leaderless protein, lacking the transmembrane and cytoplasmic domains); or human β2m (mature, leaderless protein) were expressed for four hours in BL21 E. coli following induction with 1 mM isopropyl β-D-1-thiogalactopyranoside. E. coli were pelleted and resuspended in a buffer containing 50 mM Tris, 25% (w/v) sucrose, 1 mM EDTA, 10 mM DTT pH 8.0. Inclusion body protein was then extracted by lysis of bacteria in a buffer containing 50 mM Tris pH 8.0, 1% (w/v) Triton X-100, 1% (w/v) sodium deoxycholate, 100 mM NaCl, 10 mM DTT, 5 mM MgCl2, and 1 mg DnaseI per liter of starting culture; and subsequent steps involved homogenization with a polytron homogenizer, centrifugation, and washing inclusion body protein sequentially with firstly a buffer containing 50 mM Tris pH 8, […], 100 mM NaCl, 1 mM EDTA, 1 mM DTT, and secondly a buffer containing 50 mM Tris pH 8.0, 1 mM EDTA, 1 mM DTT. Inclusion body protein was then resuspended in a buffer containing 20 mM Tris pH 8.0, 8 M urea, 0.5 mM EDTA, 1 mM DTT, and following centrifugation the supernatant containing solubilized, denatured inclusion body protein was collected and stored at −80° C.
2 mg of 6-formyl pterin, 56 mg of denatured inclusion body MR1 protein, and 28 mg of β2m protein were added to a 400 ml refold buffer solution containing 0.1 M Tris pH 8.5, 2 mM EDTA, 0.4 M arginine, 0.5 mM oxidized glutathione, 5 mM reduced glutathione. Variably, 5M urea was either present or absent. Following an overnight incubation at 4° C., the refold buffer was dialysed against 3 changes of buffer containing 10 mM Tris, pH8.0 over a period of 24 hours. Refolded MR1-β2m-ligand complex was then purified by sequential DEAE (GE Healthcare) anion exchange, S75 16/60 (GE Healthcare) gel filtration, and MonoQ (GE Healthcare) anion exchange chromatography.

MAIT cells = test: Re-presentation assay: refolded soluble MR1 added to antigen presenting cells expressing MR1 and MAIT cells; format: cell-based; conditions: MR1 refolded with the named substance
[1] = tested on: human MAIT cells from peripheral blood; test: Activation of primary MAIT cells from PBMCs (CD69, IFN-γ, TNF-α); format: cell-based; conditions: PBMCs with C1R cells expressing MR1
Procedure: PBMCs from a healthy donor were mixed with C1R-huMR1 cells (10^5 each/well). Salmonella SL1344 supernatant (2 μl) from cultures grown in LB supplemented with 25 μg/ml streptomycin (Sigma) for 4 hr at 37° C., or compounds (35A, 36A, 48G: 25 μg/ml final, A-6FP: 10 μM final) or PMA (2 ng/ml+ionomycin (1 ng/ml) added in a total volume of 220 μl RF-10, and incubated overnight at 37° C. Cells were stained with anti-CD3-PE-Cy7 (eBioscience, 20 μg/ml), anti-CD4-APC-Cy7 (Biolegend, 1.7 μg/ml), anti-CD161-APC (Miltenyi Biotec, 1:50), FITC-conjugated D5 (anti-MAIT TCR, 10 μg/ml) and either anti-CD69-PE (BD Biosciences 1:50), anti-IFNγ-PE (BD Pharmingen 10 μg/ml) or anti-TNFα-PE (BD Pharmingen 10 μg/ml), and analyzed by flow cytometry using a Canto II cytometer and Diva software. For intracellular cytokine staining, brefeldin A (10 μg/ml) was added to the assay after the first 1 hr and the incubation allowed to proceed overnight. Cells were fixed with 1% parformaldehyde after staining for surface markers and permeabilised with 1% saponin during cytokine stains. MAIT cells were defined as CD3^+, CD4^−, CD161^+, D5^+ after gating on PBMCs using FSC and SSC.
PBMCs from a healthy donor were mixed with C1R cells expressing MR1 (10^5 each/well). Salmonella SL1344 supernatant (2 μl) from cultures grown in LB supplemented with 25 μg/ml streptomycin (Sigma) for 4 hr at 37° C., or compounds (RL-6,7-diMe, RL-6-Me-7-OH, 6FP: 76.2 μM final, rRL-6-HM: 0.152 μM final) or PMA (2 ng/ml+ionomycin (1 ng/ml) added in a total volume of 220 μl RF-10, and incubated overnight at 37° C. Cells were stained with anti-CD3-PE-Cy7 (eBioscience, 20 μg/ml), anti-CD4-APC-Cy7 (Biolegend, 1.7 μg/ml), anti-CD161-APC (Miltenyi Biotec, 1:50), FITC-conjugated D5 (anti-MAIT TCR, 10 μg/ml) and either anti-CD69-PE (BD Biosciences 1:50), anti-IFNγ-PE (BD Pharmingen 10 μg/ml) or anti-TNFα-PE (BD Pharmingen 10 μg/ml), and analyzed by flow cytometry using a Canto II cytometer and Diva software. […] CD69 expression was analysed by flow cytometry. […]

Jurkat.LC13 line = test: Activation of control Jurkat.LC13 line in the presence of C1R.HLA-B8 cells; format: cell-based, human
Text: Next, to formally establish whether 7-hydroxy-6-methyl-8-ribityl lumazine and/or its precursor, 6,7-dimethyl-8-ribityl lumazine, could activate MAIT cells, both compounds were chemically synthesized their ability to enable MR1 refolding and to activate Jurkat.MAIT cells and human MAIT cells from peripheral blood tested. […] Thus, direct precursors of riboflavin biosynthesis activate MAIT cells.

Jurkat.MAIT cells = test: Activation of Jurkat.MAIT cells (CD69) with C1R antigen presenting cells expressing MR1; format: cell-based, human
Procedure: Jurkat cells transduced with a MAIT TCR comprising the TRAV1-2+TRAJ33 invariant α chain, and a TRBV6-1 β chain were tested for activation by addition of Salmonella supernatant to C1R antigen presenting cells expressing MR1 for 16 hours. Jurkat.MAIT cells were subsequently stained with PE-conjugated anti-CD3, and APC-conjugated anti-CD69 antibodies before analysis by flow cytometry. Activation of Jurkat.MAIT cells was measured by an increase in surface CD69 expression. Compounds to be tested for the ability to activate Jurkat.MAIT cells were tested alongside Salmonella supernatant.
A biological assay for the activation of MAIT T cell receptor (TCR)-expressing T cell lines (into which genes encoding the MAIT TCR alpha and beta chains had been introduced), by antigen presenting cells (expressing MR1 on the cell surface) infected with the bacterium Salmonella typhimurium has been established. This assay measures the increase in expression of the cell surface activation marker, CD69, upon activation of MAIT T cells.

human PBMC MAIT cells = test: MR1 tetramer staining of human PBMCs (flow cytometry); format: cell-based; conditions: PE-streptavidin tetramers; D5, CD161 co-staining
Procedure: Biotinylated MR1 (produced in either of the 2 methods mentioned above) is used to make tetramers by the addition of biotinylated MR1 to PE Streptavidin (#554061, BD Pharmingen) in a 4:1 molar ratio. PE Streptavidin is added sequentially in 1/10 aliquots to biotinylated MR1 at 10 minute intervals to ensure efficient tetramization.
Human MAIT cells are identified as being D5-positive (D5 mAb stains Vα7.2,-positive T cells; Vα7.2 is the invariant Vα-chain utilized by human MAIT cells) and CD161-positive. Human PBMCs were stained with CD3-PE-Cy7, CD8-PerCP, CD4-APC-Cy7, CD161-APC specific mAbs; as well as the anti-Vα7.2-FITC mAb D5 (generated in-house; human MAIT cells utilize the Vα7.2 alpha chain) and PE-labeled tetramers of mouse MR1-β2m-acetyl-6-Formyl Pterin (mouse MR1 had been refolded with either 6-formyl pterin or acetyl-6-formyl pterin).

[2] = tested on: Jurkat cells expressing a conventional T cell receptor; test: Control: inhibition of activation of Jurkat cells expressing a conventional T cell receptor by viral peptide-classical class I complexes; format: cell-based, human; conditions: antigen presenting cells displaying viral peptide-classical class I complexes
Text: Thus, 6-formyl pterin has been identified as a potential antagonist compound, capable of blocking activation of MAIT cells by bacterial activating ligands.

Molecule | Ability to refold MR1 into native MR1-β2m complex (MR1) | Activation of Jurkat.MAIT cells (increase in surface CD69) (Jurkat.MAIT cells) | Tetramer staining of human PBMC MAIT cells (human PBMC MAIT cells) | further results
Nc1nc2ncc(CNc3ccc(C(=O)N[C@@H](CCC(=O)O)C(=O)O)cc3)nc2c(=O)[nH]1 [Folic acid] | yielded significant amounts of native MR1 |  |  | Activation of MAIT cells by MR1 refolded with the substance (re-presentation assay) (MAIT cells): failed to activate; Activation of MAIT cells by MR1 refolded with the substance (re-presentation assay) (MAIT cells; listed as folic acid): non-stimulatory
Nc1nc2nccnc2c(=O)[nH]1 [pterin] | inability |  |  | 
Cc1nc2c(=O)[nH]c(=O)nc-2n(C[C@H](O)[C@H](O)[C@H](O)CO)c1O [Compound 2, 7-hydroxy-6-methyl-8-D-ribityllumazine] | could be refolded with MR1 | activated |  | Activation of MAIT cells (CD69 upregulation, intracellular IFN-γ and TNF-α) [1]: specifically activated; Activation of control Jurkat.LC13 line (Jurkat.LC13 line): failed to activate
human Leucine151Alanine MR1 refolded with acetyl-6-FP: tetramers from human Leucine151Alanine MR1 (BirA peptide-tagged) refolded with acetyl-6-FP |  |  | stain a proportion | 
human wild-type MR1 refolded with 6-FP: control tetramers from human wild-type MR1 refolded with 6-FP |  |  | fail to stain | 
Cc1nc2nc(N)[nH]c(=O)c2nc1C [6-7-dimethylpterin] | inability |  |  | 
Nc1nc2ncc(C=O)nc2c(=O)[nH]1 [Compound 6-FP, 6-formyl pterin, reference compound] | indistinguishable from MR1 refolded with folic acid | did not activate |  | Activation of MAIT cells (CD69 upregulation, intracellular IFN-γ and TNF-α) [1]: did not activate; Inhibitory effect on activation of Jurkat cells expressing a conventional T cell receptor [2]: no inhibitory effect
Cc1cc2nc3c(=O)[nH]c(=O)nc-3n(C[C@H](O)[C@H](O)[C@H](O)CO)c2cc1C [riboflavin, reference compound] | did not form MR1-β2m complexes | did not |  | 
B1 |  |  | can stain a proportion | 
B2 |  |  | identify a CD161-positive, D5-positive population | 
